Test results reported in publication PMC4232510, “Identification of Functionally Important Residues of the Rat P2X4 Receptor by Alanine Scanning Mutagenesis of the Dorsal Fin and Left Flipper Domains” (PLoS ONE, 2014).
Read-outs that look alike come from different tables or passages of the source.

Key:
rP2X4R N204A mutant = target: T1, rP2X4R N204A mutant (Rattus norvegicus, UniProt P51577, N204A); assay type: cell-based
T1 construct: expressed in transfected cells; host or cells: HEK293T
Protocol: To express the recombinant channels, we used human embryonic kidney (HEK) 293T cells (American Type Culture Collection, Rockville, MD, USA) grown in Dulbecco modified Eagle’s medium (Thermo Fisher Scientific, Waltham, MA) supplemented with 10% fetal bovine serum (Sigma-Aldrich, St Louis, MO), 50 U/ml penicillin and 50 µg/ml streptomycin (both Thermo Fisher Scientific, Waltham, MA) in a humidified 5% CO2 and 95% air at 37°C. Cells were cultured in 75 cm^2 plastic culture flasks (NUNC, Rochester, NY) for 36–72 hours until reaching 80–95% confluence. Before the day of transfection, the cells were plated on 35 mm culture dishes (Sarstedt, Newton, NC) and incubated at 37°C for at least 24 h. […] Transfected cells were identified by the fluorescence signal of EGFP using the Olympus IX71 inverted research microscope with fluorescence illuminators (Model IX71; Olympus, Melville, NY). […]
ATP-induced currents were recorded from whole cells clamped to −60 mV using an Axopatch 200B patch-clamp amplifier (Axon Instruments, Union City, CA). […] Potency of ATP was measured based on the activation of naïve (not previously stimulated) receptors using a short (2–5 s) application of various concentrations of ATP. […] One or two responses were recorded from one cell, if not otherwise stated, and responses from different cells were pooled. […]

P2X2R N202A = tested on: P2X2R N202A; design: method as in PMID 10940304; key: n.f.: non-functional mutants; ↑: mutant with significant increased EC50 in comparison to WT (values represent fold increase); ≈: close to WT receptor; D: affected time-constant of the desensitizing current response; conditions: cited from earlier work
P2X4R L206A = tested on: P2X4R L206A; design: method as in PMID 24943126; key: n.f.: non-functional mutants; ↑: mutant with significant increased EC50 in comparison to WT (values represent fold increase); ≈: close to WT receptor; D: affected time-constant of the desensitizing current response; conditions: cited from earlier work
P2X3R T196A = tested on: P2X3R T196A; design: method as in PMID 16226373; key: n.f.: non-functional mutants; ↑: mutant with significant increased EC50 in comparison to WT (values represent fold increase); ≈: close to WT receptor; D: affected time-constant of the desensitizing current response; conditions: cited from earlier work
P2X4R L214A = conditions: cited from earlier work
P2X4R D280A = tested on: P2X4R D280A; design: method as in PMID 17663752, PMID 15632318; conditions: cited from earlier work
P2X3R S267A = tested on: P2X3R S267A; design: method as in PMID 16120774; key: n.f.: non-functional mutants; ↑: mutant with significant increased EC50 in comparison to WT (values represent fold increase); ≈: close to WT receptor; D: affected time-constant of the desensitizing current response; conditions: cited from earlier work
P2X3R S269A = tested on: P2X3R S269A; design: method as in PMID 16226373; key: n.f.: non-functional mutants; ↑: mutant with significant increased EC50 in comparison to WT (values represent fold increase); ≈: close to WT receptor; D: affected time-constant of the desensitizing current response; conditions: cited from earlier work
P2X3R S275A = tested on: P2X3R S275A; design: method as in PMID 21879712; key: n.f.: non-functional mutants; ↑: mutant with significant increased EC50 in comparison to WT (values represent fold increase); ≈: close to WT receptor; D: affected time-constant of the desensitizing current response; conditions: cited from earlier work
P2X1R G288C = tested on: P2X1R G288C; design: method as in PMID 17428985; conditions: cited from earlier work
P2X1R N290A = tested on: P2X1R N290A; design: method as in PMID 16371009; conditions: cited from earlier work

T1 sequence (P51577 whole entry N204A): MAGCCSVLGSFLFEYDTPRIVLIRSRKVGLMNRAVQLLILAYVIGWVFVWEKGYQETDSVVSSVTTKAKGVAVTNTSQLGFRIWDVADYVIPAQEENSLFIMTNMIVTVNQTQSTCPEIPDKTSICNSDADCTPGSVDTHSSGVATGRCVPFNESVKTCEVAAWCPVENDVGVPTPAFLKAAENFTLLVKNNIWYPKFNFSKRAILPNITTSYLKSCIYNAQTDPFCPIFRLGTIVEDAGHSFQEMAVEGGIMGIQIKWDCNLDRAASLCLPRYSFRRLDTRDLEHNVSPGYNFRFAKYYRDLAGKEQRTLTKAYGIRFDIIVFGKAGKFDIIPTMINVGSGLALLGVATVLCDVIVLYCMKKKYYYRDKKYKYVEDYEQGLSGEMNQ

Nc1ncnc2c1ncn2[C@@H]1O[C@H](COP(=O)(O)OP(=O)(O)OP(=O)(O)O)[C@@H](O)[C@H]1O [ATP]
Imax+IVM (rP2X4R N204A mutant; ATP after 3 µM IVM 4-6 min): 2.5 ± 0.4 nA
τoff +IVM (rP2X4R N204A mutant; decay after removal of 1 or 3 µM ATP, 3 µM IVM): 5.2 ± 0.6 s
change in EC50 for ATP (P2X2R N202A): N202A: n.f.[6]
change in EC50 for ATP (P2X4R L206A): L206A: ≈[49]
change in EC50 for ATP (P2X3R T196A): T196A: ≈[54]
fold increase of EC50 for ATP in comparison to WT (P2X4R L214A; ref 41): 8 x
fold increase of EC50 for ATP in comparison to WT (P2X4R L214A; ref 49): 3 x
fold increase of EC50 for ATP in comparison to WT (P2X4R D280A): D280A ↑>100x[10], [52]
change in EC50 for ATP (P2X3R S267A): S267A: ≈[59]
change in desensitization (P2X3R S269A): S269A: D[54]
change in desensitization (P2X3R S275A): S275A: D[55]
fold increase of EC50 for ATP in comparison to WT (P2X1R G288C): 10 x
fold increase of EC50 for ATP in comparison to WT (P2X1R N290A): N290A: ↑>50x[45]
